From US9133179B2, “2-methoxy-pyridin-4-yl-derivatives” (Actelion Pharmaceuticals Ltd., priority 2011, dated 2015)

Key:
circulating lymphocytes = assay: Assessment of in vivo efficacy: circulating lymphocytes after oral administration to Wistar rats; parameters: species or system rat; details: 6 h after oral administration of 10 mg/kg, normotensive male Wistar rats, compared to vehicle group
rat trachea rings [1] = test system: rat trachea rings
Description: (§1) Measurement of Isometric Force Development
(§2) Female Wistar rats are euthanized by exposure to CO2. The tracheae are excised and rings from the lower segments are prepared. […] A resting force of 2 g (20 mN) is applied to the ring preparation, and changes in force generation are measured using an isometric force recorder (EMKA Technologies Inc., Paris, France). Viability of rings is assessed by exposure to a depolarizing concentration of KCl (50 mM). Contraction of trachea is expressed as a percentage of the response to KCl.
(§3) The compounds are prepared as stock solutions of 0.3 mM in pure DMSO.

[2] = target: T1, human S1P1 (EDG1) receptor (Homo sapiens, UniProt P21453); assay: S1P1 β-arrestin recruitment (Tango) assay to determine EC50 values; assay type: cell-based; details: Tango-EDG1 bla U2OS cells, 16 h incubation
T1 construct: host or cells: U2OS (Tango EDG1-bla U2OS)
T1 sequence (P21453 whole entry): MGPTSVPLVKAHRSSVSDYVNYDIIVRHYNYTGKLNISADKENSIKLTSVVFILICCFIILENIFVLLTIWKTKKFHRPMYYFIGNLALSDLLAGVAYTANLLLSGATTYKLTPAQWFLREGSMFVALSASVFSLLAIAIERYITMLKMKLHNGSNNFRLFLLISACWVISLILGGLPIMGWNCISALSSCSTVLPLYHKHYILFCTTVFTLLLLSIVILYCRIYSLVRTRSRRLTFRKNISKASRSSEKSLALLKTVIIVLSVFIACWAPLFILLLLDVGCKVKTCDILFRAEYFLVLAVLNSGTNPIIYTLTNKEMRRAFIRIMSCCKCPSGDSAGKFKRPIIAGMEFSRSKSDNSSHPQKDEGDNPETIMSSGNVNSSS

rat trachea rings [3] = assay: Measurement of isometric force development: constriction of rat trachea rings; details: in % of the constriction induced by 50 mM KCl
Description: as §1, §2, §3

4-((2-(4-(5-(2-Cyclopentyl-6-methoxypyridin-4-yl)-1,2,4-oxadiazol-3-yl)-2-ethyl-6-methylphenoxy)ethyl)amino)-4-oxobutanoic acid [Example 50]
Lymphocyte counts (circulating lymphocytes): −57% | concentration at which significant (or KCl-comparable) rat trachea constriction is shown (rat trachea rings [1]): 100 nM | EC50 [2]: 0.1 nM | % trachea constriction at 10 nM (rat trachea rings [3]; 10 nM): <5% | % trachea constriction at 30 nM (rat trachea rings [3]; 30 nM): 55% | % trachea constriction at 0.1 μM (rat trachea rings [3]; 0.1 μM): 103%
